Reference: ChEMBL document CHEMBL1132469 (J Med Chem, 1999)

Columns and labels:
Histone deacetylase HD2 [1] = target: T1, Histone deacetylase HD2 (Zea mays, UniProt Q94F81); assay: Inhibition of maize Histone deacetylase 2 (HD-2) activity
T1 sequence (Q94F81 whole entry): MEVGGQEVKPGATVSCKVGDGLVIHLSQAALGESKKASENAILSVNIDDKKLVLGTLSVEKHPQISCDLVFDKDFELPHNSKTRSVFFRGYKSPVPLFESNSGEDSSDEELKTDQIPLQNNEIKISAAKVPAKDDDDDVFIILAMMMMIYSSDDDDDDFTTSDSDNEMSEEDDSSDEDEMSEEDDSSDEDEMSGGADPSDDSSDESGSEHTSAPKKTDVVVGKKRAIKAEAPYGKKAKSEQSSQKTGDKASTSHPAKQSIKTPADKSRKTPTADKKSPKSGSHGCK

Histone deacetylase HD2 [2] = target: T1, Histone deacetylase HD2; assay: Inhibition of maize Histone Deacetylase 2 (HD-2) activity (inactive at 40 uM)

Row | Structure (SMILES) | IC50 (Histone deacetylase HD2 [1]) [nM] | IC50 (Histone deacetylase HD2 [2])
1 | CN(C)c1ccc(C(=O)NCCCCC(=O)NO)cc1 | 2000 | –
2 | CN(C)c1ccc(C(=O)Nc2ccc(CC(=O)O)cc2)cc1 | – | Not Active
3 | CN(C)c1ccc(C(=O)Nc2ccc(CC(=O)NO)cc2)cc1 | – | Not Active
4 | O=C(O)CCCCCNC(=O)c1ccccc1 | – | Not Active
5 | CN(C)c1ccc(C(=O)NCc2ccc(C(=O)NO)cc2)cc1 | 180 | –
6 | CN(C)c1ccc(C(=O)NCCCCCC(=O)NO)cc1 | 100 | –
7 | CN(C)c1ccc(C(=O)NCCCCCCC(=O)NO)cc1 | 100 | –
